Measured values from patent US8722849B2, “Polypeptides” (Novo Nordisk A/S, priority 2011, dated 2014).
Values after ≈ are worked out from the molar mass of the structure shown. Like-named read-outs stand apart in the source and are kept apart here. Starred links: 1 amine or outer side, 2 acyl side, 3 side chain; linkers in the order of their positions; H or OH if unused. Positions of bridges follow the written chain, without caps; N, C: chain ends. Residues, ends and D or L forms follow the SMILES beside them. *: point of attachment. C20 diacid = O=C(O)CCCCCCCCCCCCCCCCCCC(=O)*; γGlu = O=C(O)[C@H](CCC(=O)[*:2])N[*:1]

Legend:
[1] = biological target: T1, human amylin receptor (amylin 3(a) receptor: human calcitonin receptor + RAMP-3) (Homo sapiens, UniProt O60896+P30988); assay: Assay (II)a functional CRE-luciferase assay, human amylin receptor; type: cell-based
T1 construct: expressed in transfected cells; host or cells: BHK570
T1 sequence (P30988 25-474): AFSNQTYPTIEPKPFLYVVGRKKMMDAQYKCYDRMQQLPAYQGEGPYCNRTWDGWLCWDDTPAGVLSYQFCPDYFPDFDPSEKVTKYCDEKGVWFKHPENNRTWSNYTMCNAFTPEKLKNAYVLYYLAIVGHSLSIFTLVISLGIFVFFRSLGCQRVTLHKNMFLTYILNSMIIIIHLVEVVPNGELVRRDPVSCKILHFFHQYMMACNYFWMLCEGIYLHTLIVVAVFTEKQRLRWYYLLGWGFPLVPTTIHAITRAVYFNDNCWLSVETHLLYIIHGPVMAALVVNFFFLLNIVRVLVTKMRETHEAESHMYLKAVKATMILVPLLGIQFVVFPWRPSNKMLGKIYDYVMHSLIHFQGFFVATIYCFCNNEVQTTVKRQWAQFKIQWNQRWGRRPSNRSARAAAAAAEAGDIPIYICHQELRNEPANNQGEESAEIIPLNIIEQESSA
T1 sequence (O60896 24-148 partner): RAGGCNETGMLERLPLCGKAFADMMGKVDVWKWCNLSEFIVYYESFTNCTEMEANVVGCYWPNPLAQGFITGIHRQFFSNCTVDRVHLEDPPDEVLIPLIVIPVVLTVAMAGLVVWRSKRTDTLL

[2] = biological target: T2, human calcitonin receptor (Homo sapiens, UniProt P30988); assay: Assay (II)a functional CRE-luciferase assay, human calcitonin receptor; type: cell-based; conditions: Table 7; human calcitonin (CTa) receptor
T2 construct: expressed in transfected cells; host or cells: BHK570
T2 sequence (P30988 25-474): T1 sequence (P30988 25-474)

[3] = Assay (III) ThT fibrillation assay for physical stability; type: physicochemical
Outline: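 Freshly prepared formulations, pH-adjusted, with 1 μM ThT; four or eight replicates incubated at 37 °C under 960 rpm orbital shaking. Fluorescence (ex 444/em 485 nm) read every 20 min; […]. Peptide concentration measured by RP-HPLC before and after the run.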

[4] = Assay (IV) determination of solubility; type: physicochemical
Outline: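 Stock ~500 nmol/ml in water; 1:1 with 100 mM buffer, pH 3.0–8.0 (glycylglycine ≤5.0, bistrispropane ≥6.0); 18 h RT; spin; HPLC quantitation of soluble polypeptide.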

[5] = Table 2, BHK amylin 3(a)-receptor/CRE-luc cells
[6] = bistrispropane buffer, pH 6, pH 6.0, read-out: Solubility pH 6.0
[7] = bistrispropane buffer, pH 6.5, pH 6.5, read-out: Solubility pH 6.5
[8] = bistrispropane buffer, pH 7, pH 7.0, 18 hours at room temperature, Table 3, read-out: Solubility pH 7.0
[9] = bistrispropane buffer, pH 7, pH 7.0, read-out: Solubility pH 7.0
[10] = bistrispropane buffer, pH 7.5, pH 7.5, read-out: Solubility pH 7.5
[11] = bistrispropane buffer, pH 8, pH 8.0, read-out: Solubility pH 8.0
[12] = glycylglycine buffer, pH 3, pH 3.0, read-out: Solubility pH 3.0
[13] = glycylglycine buffer, pH 4, pH 4.0, 18 hours at room temperature, Table 2, read-out: Solubility pH 4.0
[14] = glycylglycine buffer, pH 4, pH 4.0, read-out: Solubility pH 4.0
[15] = glycylglycine buffer, pH 5, pH 5.0, read-out: Solubility pH 5.0

| EC50 [1, 5] [nM] | EC50 [2] [nM] | ThT pH 4.0 lag time (h) ([3]; ThT fibrillation assay) | solubility at 18 h [4, 6] [µM] | solubility at 18 h [4, 7] [µM] | solubility at 18 h [4, 8] [µM] | solubility at 18 h [4, 9] [µM] | solubility at 18 h [4, 10] [µM] | solubility at 18 h [4, 11] [µM] | solubility at 18 h [4, 12] [µM] | solubility at 18 h [4, 13] [µM] | solubility at 18 h [4, 14] [µM] | solubility at 18 h [4, 15] [µM] | ThT pH 4.0 lag time ([3]; Table 8) [h] | ThT pH 4.0 lag time ([3]; Table 9) [h] | ThT pH 4.0 lag time ([3]; ThT fibrillation assay) [h] | solubility at 18 h ([4]; bistrispropane buffer, pH 7, pH 7.0, Table 8, read-out: Solubility pH 7.0) [µM] | solubility at 18 h ([4]; bistrispropane buffer, pH 7, pH 7.0, Table 9, read-out: Solubility pH 7.0) [µM] | solubility at 18 h ([4]; bistrispropane buffer, pH 7.5, pH 7.5, Table 9, read-out: Solubility pH 7.5) [µM] | EC50 ([1]; Table 6, human amylin receptor) [nM] | Compound |
| --- | --- | --- | --- | --- | --- | --- | --- | --- | --- | --- | --- | --- | --- | --- | --- | --- | --- | --- | --- | --- |
| 0.107 | 0.0585 | 23.6 | > 200 | > 200 | > 200 | > 200 | > 200 | > 200 | > 200 | > 200 | > 200 | > 200 |  |  |  |  |  |  |  | CC[C@H](C)[C@H](NC(=O)[C@@H]1CCCN1C(=O)CNC(=O)[C@H](Cc1ccccc1)NC(=O)[C@H](CC(N)=O)NC(=O)[C@H](CCC(N)=O)NC(=O)[C@H](CO)NC(=O)[C@H](CO)NC(=O)[C@H](Cc1c[nH]cn1)NC(=O)[C@@H](NC(=O)[C@H](CC(C)C)NC(=O)[C@H](Cc1ccccc1)NC(=O)[C@H](CCC(=O)O)NC(=O)[C@H](C)NC(=O)[C@H](CC(C)C)NC(=O)[C@H](CCCNC(=N)N)NC(=O)[C@H](CCC(N)=O)NC(=O)[C@@H](NC(=O)[C@H](C)NC(=O)[C@@H]1CSSC[C@H](NC(=O)[C@H](CCCCN)NC(=O)CC[C@H](NC(=O)CCCCCCCCCCCCCCCCCCC(=O)O)C(=O)O)C(=O)N[C@@H](CC(N)=O)C(=O)N[C@@H]([C@@H](C)O)C(=O)N[C@@H](C)C(=O)N[C@@H]([C@@H](C)O)C(=O)N1)[C@@H](C)O)C(C)C)C(=O)N[C@@H](CC(C)C)C(=O)N1CCC[C@H]1C(=O)N1CCC[C@H]1C(=O)N[C@H](C(=O)N[C@@H](CC(N)=O)C(=O)N[C@H](C(=O)NCC(=O)N[C@@H](CO)C(=O)N[C@@H](CCC(N)=O)C(=O)N[C@H](C(=O)N1CCC[C@H]1C(N)=O)[C@@H](C)O)C(C)C)[C@@H](C)O [Example 139, N-alpha-[(S)-4-Carboxy-4-(19-carboxynonadecanoylamino)butyryl]-[Glu14,Gln21,Gln35,Pro37]-pramlintide] ({C20 diacid-γGlu}-KCNTATCATQRLAEFLVHSSQNFGPILPPTNVGSQTP-NH2; disulfide 2-7 (inferred)) |
| 0.09 | 0.076 | >45 | > 200 | > 200 | > 200 | > 200 | > 200 | 188 (≈ 808 µg/mL) | > 200 | > 200 | > 200 | 186 (≈ 800 µg/mL) | >45 | >45 | >45 | > 200 | > 200 | > 200 |  | CC[C@H](C)[C@H](NC(=O)[C@@H]1CCCN1C(=O)CNC(=O)[C@H](Cc1ccccc1)NC(=O)[C@H](CO)NC(=O)[C@H](CO)NC(=O)[C@H](CO)NC(=O)[C@H](CO)NC(=O)[C@H](CCCNC(=N)N)NC(=O)[C@@H](NC(=O)[C@H](CC(C)C)NC(=O)[C@H](Cc1ccccc1)NC(=O)[C@H](CCC(=O)O)NC(=O)[C@H](C)NC(=O)[C@H](CC(C)C)NC(=O)[C@H](CCCNC(=N)N)NC(=O)[C@H](CCC(N)=O)NC(=O)[C@@H](NC(=O)[C@H](C)NC(=O)[C@@H]1CSSC[C@H](NC(=O)[C@H](CCCCN)NC(=O)CC[C@H](NC(=O)CCCCCCCCCCCCCCCCCCC(=O)O)C(=O)O)C(=O)N[C@@H](CC(N)=O)C(=O)N[C@@H]([C@@H](C)O)C(=O)N[C@@H](C)C(=O)N[C@@H]([C@@H](C)O)C(=O)N1)[C@@H](C)O)C(C)C)C(=O)N[C@@H](CC(C)C)C(=O)N[C@@H](CO)C(=O)N[C@@H](CO)C(=O)N[C@H](C(=O)N[C@@H](CC(=O)O)C(=O)N[C@H](C(=O)NCC(=O)N[C@@H](CO)C(=O)N[C@@H](CC(=O)O)C(=O)N[C@H](C(=O)N1CCC[C@H]1C(N)=O)[C@@H](C)O)C(C)C)[C@@H](C)O [Example 170, N-alpha-[(S)-4-Carboxy-4-(19-carboxynonadecanoylamino)butyryl]-[Glu14,Arg18,Ser21,Ser22,Ser28,Ser29,Asp31,Asp35,Pro37]-pramlintide] ({C20 diacid-γGlu}-KCNTATCATQRLAEFLVRSSSSFGPILSSTDVGSDTP-NH2; disulfide 2-7 (inferred)) |
| 0.119 | 0.184 | 2.7 | > 200 | > 200 | > 200 | > 200 | > 200 | > 200 | > 200 | > 200 | > 200 | > 200 |  |  |  |  |  |  |  | CC[C@H](C)[C@H](NC(=O)[C@@H]1CCCN1C(=O)CNC(=O)[C@H](Cc1ccccc1)NC(=O)[C@H](CC(N)=O)NC(=O)[C@H](CC(N)=O)NC(=O)[C@H](CO)NC(=O)[C@H](CO)NC(=O)[C@H](Cc1c[nH]cn1)NC(=O)[C@H](Cc1c[nH]cn1)NC(=O)[C@H](CC(C)C)NC(=O)[C@H](Cc1ccccc1)NC(=O)[C@H](CCC(=O)O)NC(=O)[C@H](C)NC(=O)[C@H](CC(C)C)NC(=O)[C@H](CCCNC(=N)N)NC(=O)[C@H](CCC(N)=O)NC(=O)[C@@H](NC(=O)[C@H](C)NC(=O)[C@@H]1CSSC[C@H](NC(=O)[C@H](CCCNC(=N)N)NC(=O)[C@H](CCC(=O)O)NC(=O)CC[C@H](NC(=O)CCCCCCCCCCCCCCCCCCC(=O)O)C(=O)O)C(=O)N[C@@H](CC(N)=O)C(=O)N[C@@H]([C@@H](C)O)C(=O)N[C@@H](C)C(=O)N[C@@H]([C@@H](C)O)C(=O)N1)[C@@H](C)O)C(=O)N[C@@H](CC(C)C)C(=O)N1CCC[C@H]1C(=O)N1CCC[C@H]1C(=O)N[C@H](C(=O)N[C@@H](CC(N)=O)C(=O)N[C@H](C(=O)NCC(=O)N[C@@H](CO)C(=O)N[C@@H](CC(N)=O)C(=O)N[C@H](C(=O)N[C@@H](Cc1ccc(O)cc1)C(N)=O)[C@@H](C)O)C(C)C)[C@@H](C)O [Example 25, N-alpha-[(S)-4-Carboxy-4-(19-carboxynonadecanoylamino)butyryl]-Glu-[Arg1,Glu14,His17]-pramlintide] ({C20 diacid-γGlu}-ERCNTATCATQRLAEFLHHSSNNFGPILPPTNVGSNTY-NH2; disulfide 3-8 (inferred)) |
|  | 0.432 | 0 | 6 | 4 |  | 1 | 25 | 26 | > 200 |  | 84 | 52 |  |  |  |  |  |  | 0.253 | {C20 diacid-γGlu}-SSGSSGCNTATCATQRLAEFLHHSSNNFGPILPPTNVGSNTY-NH2 (disulfide 7-12 (inferred)) [Example 39, N-alpha-[(S)-4-Carboxy-4-(19-carboxynonadecanoylamino)butyryl]-Ser-Ser-Gly-Ser-Ser-[Gly1,Glu14,His17]-pramlintide] |
